Experimental data reported in patent US20260000710A1, “Novel Treatments for Cardiovascular Related Disease” (priority 2022, published 2026).
One block for each molecule: values may come before it.

Key:
[1] = tested on: purified MHC molecules (28 common HLA DP, DQ and DR alleles); assay: HLA class II competition binding assay (inhibition of radiolabeled ligand binding); parameters: species or system human; details: alleles bound at <1000 nM threshold
Procedure: Peptides predicted to bind most (≥75%) of the alleles, were experimentally verified in HLA-II binding assays^31. For each peptide, the number of alleles that bound at a <1000 nM threshold level was tabulated. Top 20 promiscuous binders (bind >50% of reference alleles) were selected for further study (FIG. 9A, Table 2).
Next, the capacity of these peptides to bind 28 common HLA alleles (27 from the reference set plus DPB1*03:01) was determined experimentally using classical competition assays based on the inhibition of binding of high affinity radiolabeled ligands to purified MHC molecules^3. Under the conditions utilized, where [radiolabeled peptide] is <[MHC], and [MHC]<[inhibitor peptide], the measured IC50 values, defined as the concentrations of inhibitor peptide that inhibits the binding of the radiolabeled ligand by 50%, are reasonable estimates of true Kd values.

PBMCs = assay: IFNγ ELISpot after 14-day in vitro expansion and re-stimulation; assay type: cell-based, human
Procedure: To do this, the inventors used the optimized IFNγ ELISpot assay (FIG. 1A) because Th1 cytokine response to APOB peptides is most robust (FIG. 9D) and easily detectable in high-throughput screens. PBMCs from HLA-typed donors (demographics and HLA-II alleles in Tables 5, 6) were incubated with the APOB20 pool for 14 days with intermittent IL-2 feeding (schematic in FIG. 11A). […] Restimulation with the APOB20 pool and with PHA-L served as positive controls, and unstimulated cells were negative controls. For each donor, APOB peptide-specific restimulation conditions were run in triplicate wells and the average number of spot-forming cells (SFCs) per 10^6 PBMCs was calculated. To determine responder frequencies, a positive response was defined based on established criteria set for detection of responses to other autoantigenic epitopes^4. (1) ≥100 spot-forming cells per 10^6 PBMCs; (2) stimulation index ≥2 (3) p≤0.01 by Student's t-test, mean response in stimulated vs unstimulated replicate wells.
Expansion of antigen-specific T cells and Enzyme-linked immunospot (ELISpot) assay. For in vitro expansion, PBMCs were plated at a density of 2×10^6 cells/ml in 24-well plates and were cultured in the presence of APOB20 and CEFX-II peptide pools. […] Wells were imaged and spot-forming cells (SFCs) were quantified using the Zeiss KS or AID (Autoimmun Diagnostika) ELISpot readers. […]

[2] = tested on: AIM+ and AIM− CD4+ T cells from peptide-expanded PBMCs; assay: TCRβ CDR3 sequencing (immunoSEQ) of sorted AIM+ and AIM− CD4+ T cells; assay type: cell-based, human; details: for Log10 Odds Ratio: AIM+ vs AIM−;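 as to all read-outs here: genomic DNA from sorted cells as template, amplification bias-controlled two-step multiplex PCR, APOB6 pool at 10 µg/ml per peptide, CD40 blocking antibody added before restimulation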
Procedure: To examine the clonotypic identities of autoreactive CD4^+ T cells, the hypervariable TCRβ DR3 region was sequenced using a DNA-based sequencing technique^42 (Adaptive Biotechnologies), which have been used to profile clonal populations of other self-antigen specific T cells^43. PBMCs from six HLA-typed donors (demographics and HLA-II alleles in Tables 5, 6) were expanded (14-days) and restimulated (24 h) with the APOB6 pool. To isolate viable responder and non-responder CD4^+ T cells from the same pool of stimulated PBMCs (schematic in FIG. 15A, gating strategy in FIG. 151B), the inventors used the AIM assay protocol (FIGS. 2A to 2D).
As a second control, unexpanded PBMCs (day 0 samples), sorted into naïve, central memory (TCM) and effector memory (TEM) CD4^+ T cells, were used (gating strategy in FIG. 15C). This allowed tracing the APOB6-specific AIM^+ T cell clones in naïve and memory T cell lineages. Genomic DNA, isolated from sorted AIM^− and AIM^+ Day 14 samples and naïve, TCM and TEM Day 0 samples from six donors, was used as the starting material for TCRVβ sequencing (schematic in FIG. 15A) using an optimized two-step, amplification bias-controlled multiplex-PCR-based approach^42,44 (immunoSEQ Human TCRB Assay, Adaptive Biotechnologies).
For isolation of APOB epitope-specific CD4^+ T cells, PBMCs were expanded with the APOB6pool (10 μg/ml per peptide). On Day 14, cultured cells were washed and re-stimulated with APOB6 (10 μg/ml) for 24 h (AIM assay protocol). 1 μg/ml of CD40 blocking antibody was added 15 min before stimulation. At the end of the stimulation period, cells were washed with FACS buffer (PBS w/o Ca/Mg, 2% FCS). Day 14 (APOB6 expanded and restimulated) and Day 0 (ex vivo samples with no in vitro stimulation) PBMC samples from six donors were resuspended in a staining master mix containing anti-human Fc-Block (Biolegend), fixable viability dye and antibodies against T cell and non-T cell (Dump) surface markers, activation markers and memory markers (antibody details in Table 4). Viability dye was used at 1:1000 dilution, antibodies were used at a final dilution of 1:100 (activation markers) and 1:200 (other extracellular markers). […] Gates were set based on unstimulated and PHA-L stimulated negative and positive controls, respectively. Antigen-specific AIM^+ and non-specific control AIM^− CD4^+ T cells from Day 14 samples and naïve (CD45RA^+CCR7^+), central memory (CD45RA^−CCR7^+, TCM) and effector memory (CD45RA^−CCR7^−, TEM) CD4^+ T cells from Day 0 PBMCs were sorted into HEPES-containing buffer (PBS with 2% FBS and 0.025 M HEPES) using BD FACSAria flow cytometry sorters. Acquired data was analyzed with FlowJo software.
Genomic DNA was extracted from sorted cells using QIAamp DNA Micro Kit (QIAGEN) and sent to Adaptive Biotechnologies for survey-level TCRβ sequencing (depth ˜60,000 reads) using their established immunoSEQ platform^7. Briefly, highly variable CDR3 regions on somatically rearranged human TCRβ chains were amplified with a two-step multiplex PCR approach using optimized set of primers that target the VDJ region spanning each unique CDR3B. A synthetic repertoire containing all possible V/J templates is used as a built-in control to quantify and correct PCR amplification biases. Processing of raw Illumina sequence reads, filtering, demultiplexing, clustering and mapping of CDR3 sequences and annotation of VDJ genes using IMGT database sequences were performed at Adaptive Biotechnologies and made available for download and analysis.

[3] = target: 28 common HLA alleles (27 from the reference set plus DPB1*03:01), purified MHC molecules; assay: competition assay, inhibition of radiolabeled ligand binding to purified HLA class II; bound = IC50 <1000 nM
[4] = Donor 2, PBMCs expanded 14 days and restimulated 24 h with APOB6
[5] = Donor 6, PBMCs expanded 14 days and restimulated 24 h with APOB6
[6] = Donor 3, PBMCs expanded 14 days and restimulated 24 h with APOB6
[7] = Donor 1, PBMCs expanded 14 days and restimulated 24 h with APOB6
[8] = Donor 5, PBMCs expanded 14 days and restimulated 24 h with APOB6
[9] = Donor 4, PBMCs expanded 14 days and restimulated 24 h with APOB6

Molecule: TLTAFGFASADLIEI [Peptide 2]
- response with pan-HLA-DR blocking antibody (PBMCs; donor 1, HLA-DR alleles with strong binding affinities for the peptide): inhibited responses
- immunogenicity under HLA-DR blockade (PBMCs; donor 2, DQ and DP binder alleles and DR non-binder alleles): remained unaffected
- No. of HLA-II alleles bound [1]: 21

Molecule: FLHYIFMENAFELPT [Peptide 3]
- No. of HLA-II alleles bound [1]: 24

Molecule: ILFSYFQDLVITLPF [Peptide 17]
- No. of HLA-II alleles bound [1]: 17

Molecule: GKIDFLNNYALFLSP [Peptide 14]
- No. of HLA-II alleles bound [1]: 23

Molecule: SLFFSAQPFEITAST [Peptide 13]
- No. of HLA-II alleles bound [1]: 23

Molecule: CASSPRAGGAVREQYF: TCRβ CDR3 clone, TCRBV05-08+TCRBJ02-07, Donor 2
- Log10 Odds Ratio ([2]; Donor 2): 12.03
- No. of clone-specific productive templates, AIM+ CD4+ T (Total 18591) [2, 4]: 375
- No. of clone-specific productive templates, AIM− CD4+ T (Total 7206) [2, 4]: 0

Molecule: CATSQGVGSGANVLTF: TCRβ CDR3 clone, TCRBV15-01+TCRBJ02-06, Donor 6
- Log10 Odds Ratio ([2]; Donor 6): 2.24
- No. of clone-specific productive templates, AIM+ CD4+ T (Total 34927) [2, 5]: 649
- No. of clone-specific productive templates, AIM− CD4+ T (Total 45364) [2, 5]: 5

Molecule: CASSDDLAANVLTF: TCRβ CDR3 clone, TCRBV13-01+TCRBJ02-06, Donor 2
- Log10 Odds Ratio ([2]; Donor 2): 1.61
- No. of clone-specific productive templates, AIM+ CD4+ T (Total 18591) [2, 4]: 411
- No. of clone-specific productive templates, AIM− CD4+ T (Total 7206) [2, 4]: 4

Molecule: CSARADGQGYGYTF: TCRβ CDR3 clone, TCRBV20-X+TCRBJ01-02, Donor 3
- Log10 Odds Ratio ([2]; Donor 3): 1.73
- No. of clone-specific productive templates, AIM+ CD4+ T (Total 16700) [2, 6]: 996
- No. of clone-specific productive templates, AIM− CD4+ T (Total 21770) [2, 6]: 26

Molecule: CASSIRPNDEQFF: TCRβ CDR3 clone, TCRBV09-01+TCRBJ02-01, Donor 1
- Log10 Odds Ratio ([2]; Donor 1): 2.93
- No. of clone-specific productive templates, AIM+ CD4+ T (Total 21697) [2, 7]: 366
- No. of clone-specific productive templates, AIM− CD4+ T (Total 49956) [2, 7]: 1

Molecule: CASSLERGAYGYTF: TCRβ CDR3 clone, TCRBV07-02+TCRBJ01-02, Donor 6
- Log10 Odds Ratio ([2]; Donor 6): 2.81
- No. of clone-specific productive templates, AIM+ CD4+ T (Total 34927) [2, 5]: 963
- No. of clone-specific productive templates, AIM− CD4+ T (Total 45364) [2, 5]: 2

Molecule: CASRGQRDTGELFF: TCRβ CDR3 clone, TCRBV19-01+TCRBJ02-02, Donor 1
- Log10 Odds Ratio ([2]; Donor 1): 2.63
- No. of clone-specific productive templates, AIM+ CD4+ T (Total 21697) [2, 7]: 367
- No. of clone-specific productive templates, AIM− CD4+ T (Total 49956) [2, 7]: 2

Molecule: CASIRPGLNYGYTF: TCRβ CDR3 clone, TCRBV06-05+TCRBJ01-02, Donor 3
- Log10 Odds Ratio ([2]; Donor 3): 1.08
- No. of clone-specific productive templates, AIM+ CD4+ T (Total 16700) [2, 6]: 436
- No. of clone-specific productive templates, AIM− CD4+ T (Total 21770) [2, 6]: 48

Molecule: CASSPADREETQYF: TCRβ CDR3 clone, TCRBV18-01+TCRBJ02-05, Donor 3
- Log10 Odds Ratio ([2]; Donor 3): 0.99
- No. of clone-specific productive templates, AIM+ CD4+ T (Total 16700) [2, 6]: 410
- No. of clone-specific productive templates, AIM− CD4+ T (Total 21770) [2, 6]: 56

Molecule: CSASRTYDNQPQHF: TCRβ CDR3 clone, TCRBV20-01+TCRBJ01-05, Donor 2
- Log10 Odds Ratio ([2]; Donor 2): 11.96
- No. of clone-specific productive templates, AIM+ CD4+ T (Total 18591) [2, 4]: 326
- No. of clone-specific productive templates, AIM− CD4+ T (Total 7206) [2, 4]: 0

Molecule: CSAREGALDNSPLHF: TCRβ CDR3 clone, TCRBV20-X+TCRBJ01-06, Donor 5
- Log10 Odds Ratio ([2]; Donor 5): 2.33
- No. of clone-specific productive templates, AIM+ CD4+ T (Total 31354) [2, 8]: 537
- No. of clone-specific productive templates, AIM− CD4+ T (Total 48987) [2, 8]: 4

Molecule: LIINWLQEALSSASL [Peptide 11]
- No. of HLA-II alleles bound [1]: 17

Molecule: CASSLTRIPEQYF: TCRβ CDR3 clone, TCRBV28-01+TCRBJ02-07, Donor 1
- Log10 Odds Ratio ([2]; Donor 1): 0.90
- No. of clone-specific productive templates, AIM+ CD4+ T (Total 21697) [2, 7]: 459
- No. of clone-specific productive templates, AIM− CD4+ T (Total 49956) [2, 7]: 136

Molecule: CSARVTGGGAHTGELFF: TCRβ CDR3 clone, TCRBV20-X+TCRBJ02-02, Donor 1
- Log10 Odds Ratio ([2]; Donor 1): 2.69
- No. of clone-specific productive templates, AIM+ CD4+ T (Total 21697) [2, 7]: 422
- No. of clone-specific productive templates, AIM− CD4+ T (Total 49956) [2, 7]: 2

Molecule: CASSISLALIYEQYF: TCRβ CDR3 clone, TCRBV19-01+TCRBJ02-07, Donor 6
- Log10 Odds Ratio ([2]; Donor 6): 2.09
- No. of clone-specific productive templates, AIM+ CD4+ T (Total 34927) [2, 5]: 371
- No. of clone-specific productive templates, AIM− CD4+ T (Total 45364) [2, 5]: 4

Molecule: YKKLRTSSFALNLPT [Peptide 16]
- No. of HLA-II alleles bound [1]: 21

Molecule: CASSLYAGQNTEAFF: TCRβ CDR3 clone, TCRBV07-02+TCRBJ01-01, Donor 6
- Log10 Odds Ratio ([2]; Donor 6): 2.35
- No. of clone-specific productive templates, AIM+ CD4+ T (Total 34927) [2, 5]: 344
- No. of clone-specific productive templates, AIM− CD4+ T (Total 45364) [2, 5]: 2

Molecule: CASSPQPSTDTQYF: TCRβ CDR3 clone, TCRBV07-08+TCRBJ02-03, Donor 4
- Log10 Odds Ratio ([2]; Donor 4): 1.60
- No. of clone-specific productive templates, AIM+ CD4+ T (Total 25796) [2, 9]: 431
- No. of clone-specific productive templates, AIM− CD4+ T (Total 25928) [2, 9]: 11

Molecule: CASSEMGLNTDTQYF: TCRβ CDR3 clone, TCRBV06-01+TCRBJ02-03, Donor 4
- Log10 Odds Ratio ([2]; Donor 4): 0.45
- No. of clone-specific productive templates, AIM+ CD4+ T (Total 25796) [2, 9]: 1601
- No. of clone-specific productive templates, AIM− CD4+ T (Total 25928) [2, 9]: 601

B2: APOB peptide 10 (…) (peptide)
peptide: HVKHFVINLIGDFEV
- No. of HLA-II alleles bound [3]: 21 alleles

B4: APOB peptide 12 (…) (peptide)
peptide: LEVLNFDFQANAQLS
- No. of HLA-II alleles bound [3]: 18 alleles

B9: APOB peptide 18 (…) (peptide)
peptide: KFTYLINYIQDEINT
- No. of HLA-II alleles bound [3]: 19 alleles

B10: APOB peptide 19 (…) (peptide)
peptide: QIHQYIMALREEYFD
- No. of HLA-II alleles bound [3]: 25 alleles

B13: APOB peptide 3 (…) (peptide)
peptide: FLHYIFMENAFELPT
- No. of HLA-II alleles bound [3]: 24 alleles

B17: APOB peptide 7 (…) (peptide)
peptide: HFSNVFRSVMAPFTM
- No. of HLA-II alleles bound [3]: 22 alleles

The next lines start with the values.

- No. of HLA-II alleles bound [1]: 23
Molecule: DKRLAAYLMLMRSPS [Peptide 1]

- No. of HLA-II alleles bound [1]: 22
Molecule: HFSNVFRSVMAPFTM [Peptide 7]

- No. of HLA-II alleles bound [1]: 25
Molecule: QIHQYIMALREEYFD [Peptide 19]

- No. of HLA-II alleles bound [1]: 23
Molecule: RGLKLATALSLSNKF [Peptide 15]

- No. of HLA-II alleles bound [1]: 20
Molecule: IKHIYAISSAALSAS [Peptide 6]

- No. of HLA-II alleles bound [1]: 21
Molecule: HVKHFVINLIGDFEV [Peptide 10]

- No. of HLA-II alleles bound [1]: 20
Molecule: KIVSLIKNLLVALKD [Peptide 20]

- No. of HLA-II alleles bound [1]: 27
Molecule: QLYSKFLLKAEPLAF [Peptide 8]

- No. of HLA-II alleles bound [1]: 17
Molecule: LSQLQTYMIQFDQYI [Peptide 9]

- No. of HLA-II alleles bound [1]: 18
Molecule: VEFVTNMGIIIPDFA [Peptide 4]

- No. of HLA-II alleles bound [1]: 21
Molecule: VGSKLIVAMSSWLQK [Peptide 5]

- No. of HLA-II alleles bound [1]: 19
Molecule: KFTYLINYIQDEINT [Peptide 18]

- No. of HLA-II alleles bound [1]: 18
Molecule: LEVLNFDFQANAQLS [Peptide 12]

- No. of HLA-II alleles bound [3]: 23 alleles
B1: APOB peptide 1 (…) (peptide)
peptide: DKRLAAYLMLMRSPS

- No. of HLA-II alleles bound [3]: 17 alleles
B3: APOB peptide 11 (…) (peptide)
peptide: LIINWLQEALSSASL

- No. of HLA-II alleles bound [3]: 23 alleles
B5: APOB peptide 13 (…) (peptide)
peptide: SLFFSAQPFEITAST

- No. of HLA-II alleles bound [3]: 23 alleles
B6: APOB peptide 14 (…) (peptide)
peptide: GKIDFLNNYALFLSP

- No. of HLA-II alleles bound [3]: 21 alleles
B7: APOB peptide 16 (…) (peptide)
peptide: YKKLRTSSFALNLPT

- No. of HLA-II alleles bound [3]: 17 alleles
B8: APOB peptide 17 (…) (peptide)
peptide: ILFSYFQDLVITLPF

- No. of HLA-II alleles bound [3]: 21 alleles
B11: APOB peptide 2 (…) (peptide)
peptide: TLTAFGFASADLIEI

- No. of HLA-II alleles bound [3]: 20 alleles
B12: APOB peptide 20 (…) (peptide)
peptide: KIVSLIKNLLVALKD

- No. of HLA-II alleles bound [3]: 18 alleles
B14: APOB peptide 4 (…) (peptide)
peptide: VEFVTNMGIIIPDFA

- No. of HLA-II alleles bound [3]: 21 alleles
B15: APOB peptide 5 (…) (peptide)
peptide: VGSKLIVAMSSWLQK

- No. of HLA-II alleles bound [3]: 20 alleles
B16: APOB peptide 6 (…) (peptide)
peptide: IKHIYAISSAALSAS

- No. of HLA-II alleles bound [3]: 27 alleles
B18: APOB peptide 8 (…) (peptide)
peptide: QLYSKFLLKAEPLAF

- No. of HLA-II alleles bound [3]: 17 alleles
B19: APOB peptide 9 (…) (peptide)
peptide: LSQLQTYMIQFDQYI
